ChEMBL document CHEMBL2073837, “Inhibitory effects of pomelo on the metabolism of tacrolimus and the activities of CYP3A4 and P-glycoprotein” (Drug Metab Dispos, 2004)

What was measured:
[1] = target: T1, ATP-dependent translocase ABCB1 (Homo sapiens, UniProt P08183); experiment: TP_TRANSPORTER: transepithelial transport of digoxin (apical to basal) (Digoxin: 20-30uM) in MDR1-expressing LLC-GA5-COL150 cell; assay type: functional, cell-based; details: pig
[2] = target: T1, ATP-dependent translocase ABCB1; experiment: TP_TRANSPORTER: transepithelial transport of tacrolimus (apical to basal) (Tacrolimus: 1.38-1.48uM) in MDR1-expressing LLC-GA5-COL150 cell; assay type: functional, cell-based; details: pig

T1 sequence (P08183 whole entry): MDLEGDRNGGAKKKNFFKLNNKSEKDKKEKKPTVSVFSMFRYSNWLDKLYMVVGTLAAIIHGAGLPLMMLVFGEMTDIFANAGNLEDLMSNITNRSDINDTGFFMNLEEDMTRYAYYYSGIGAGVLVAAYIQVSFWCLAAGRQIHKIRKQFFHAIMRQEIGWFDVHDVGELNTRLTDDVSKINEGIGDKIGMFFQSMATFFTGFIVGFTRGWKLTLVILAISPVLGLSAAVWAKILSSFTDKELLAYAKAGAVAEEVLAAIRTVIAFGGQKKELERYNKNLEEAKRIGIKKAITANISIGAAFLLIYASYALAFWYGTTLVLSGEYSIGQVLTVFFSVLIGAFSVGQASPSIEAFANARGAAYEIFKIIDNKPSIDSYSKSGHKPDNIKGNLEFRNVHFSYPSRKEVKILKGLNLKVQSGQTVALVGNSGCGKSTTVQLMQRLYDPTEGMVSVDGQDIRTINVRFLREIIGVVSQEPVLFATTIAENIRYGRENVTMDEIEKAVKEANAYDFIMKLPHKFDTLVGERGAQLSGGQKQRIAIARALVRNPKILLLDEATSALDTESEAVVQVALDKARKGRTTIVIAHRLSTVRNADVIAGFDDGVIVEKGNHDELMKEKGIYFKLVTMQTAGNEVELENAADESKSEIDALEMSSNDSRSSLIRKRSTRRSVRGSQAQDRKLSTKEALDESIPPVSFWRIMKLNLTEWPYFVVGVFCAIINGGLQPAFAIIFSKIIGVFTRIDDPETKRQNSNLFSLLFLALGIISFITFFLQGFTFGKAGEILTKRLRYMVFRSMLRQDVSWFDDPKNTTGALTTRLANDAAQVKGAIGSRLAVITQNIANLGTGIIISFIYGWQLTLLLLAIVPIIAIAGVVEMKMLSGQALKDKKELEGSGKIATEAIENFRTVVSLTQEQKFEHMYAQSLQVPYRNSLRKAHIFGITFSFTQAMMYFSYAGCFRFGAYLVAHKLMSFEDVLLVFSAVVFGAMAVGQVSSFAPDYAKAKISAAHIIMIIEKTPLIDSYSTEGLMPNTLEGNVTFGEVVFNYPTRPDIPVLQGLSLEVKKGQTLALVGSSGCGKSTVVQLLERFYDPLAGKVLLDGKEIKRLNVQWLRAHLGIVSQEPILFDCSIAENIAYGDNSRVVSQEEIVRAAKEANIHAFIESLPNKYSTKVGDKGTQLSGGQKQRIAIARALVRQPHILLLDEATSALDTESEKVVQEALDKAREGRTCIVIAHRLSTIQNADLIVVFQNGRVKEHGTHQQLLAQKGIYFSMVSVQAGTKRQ

Row | Activity [1] | Activity [2] | Compound
1 | inhibitor [+] |  | CC[C@H]1OC(=O)[C@H](C)[C@@H](O[C@H]2C[C@@](C)(OC)[C@@H](O)[C@H](C)O2)[C@H](C)[C@@H](O[C@@H]2O[C@H](C)C[C@H](N(C)C)[C@H]2O)[C@](C)(OC)C[C@@H](C)C(=O)[C@H](C)[C@@H](O)[C@]1(C)O [CLARITHROMYCIN]
2 | inhibitor [+] | inhibitor [+] | GRAPEFRUIT JUICE
3 | inhibitor [+] | inhibitor [+] | BANPEIYU
